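Values below derive from 48-hour exposures of cells grown in 96-well plates, with endpoints linearly interpolated between the two concentrations bracketing the appropriate inhibition level. At the GI50, growth is halved. TGI: concentration producing complete growth inhibition.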
What was measured:
Assay in all cases: inhibition of tumour cell growth, NCI panel, 48 h
[1] = test system: COLO 205 colon
[2] = test system: HT29 colon
[3] = test system: NCI-H460 lung
[4] = test system: MALME-3M melanoma
[5] = test system: SNB-19 CNS
[6] = test system: LOX IMVI melanoma
[7] = test system: OVCAR-5 ovarian
[8] = test system: RXF 393 renal
[9] = test system: HCC-2998 colon
[10] = test system: MDA-MB-231 breast

Compound	GI50 [1] [µM]	TGI [1] [µM]	GI50 [2] [µM]	TGI [2] [µM]	GI50 [3] [µM]	TGI [3] [µM]	GI50 [4] [µM]	TGI [4] [µM]	GI50 [5] [µM]	TGI [5] [µM]	GI50 [6] [µM]	TGI [6] [µM]	GI50 [7] [µM]	TGI [7] [µM]	GI50 [8] [µM]	TGI [8] [µM]	GI50 [9] [µM]	TGI [9] [µM]	GI50 [10] [µM]	TGI [10] [µM]
O=c1[nH]c(=O)n(C2CC(O)C(CO)O2)cc1CO (configuration not stated)	> 100	> 100	> 100	> 100	37.1	> 100	> 100	> 100	2.9	> 100	> 100	> 100	> 100	> 100	> 100	> 100	> 100	> 100		
CCOC(=O)C(C)(C)Oc1ccc2c(C)c(-c3ccc(Cl)cc3)c(=O)oc2c1		> 100		62.7		> 100		> 100		> 100		> 100				> 100		> 100		
O=C(N/N=C1/C(=O)N(c2ccc(Cl)cc2Cl)C(=O)C(=O)C1c1nc2ccccc2o1)c1ccccc1O (configuration not stated)		> 100		> 100		> 100		78.6		> 100				> 100						
O=C1[C@@H]2C3c4ccccc4C([C@@H]2C(=O)N1c1ccccc1)S3(=O)=O		> 100		> 100		> 100		> 100		> 100		> 100		> 100		> 100		> 100		
Ic1ccc(-n2nnnc2-c2cnoc2-c2ccccc2)cc1	> 59	> 100	> 100	> 100	35	> 100	> 44.2	> 73.6	> 63.1	> 100	49.3	> 100	> 100	> 100	43.1	> 100			> 51.9	> 91.2
c1ccc(SC2CCSc3ccccc3C2Sc2ccccc2)cc1 (configuration not stated)				> 100		> 100				> 100		> 100						> 100		
CCOC(=O)NC(=O)c1cn(CCOC(=O)NCCCCCCNC(=O)OCCn2cc(C(=O)NC(=O)OCC)c(=O)[nH]c2=O)c(=O)[nH]c1=O		> 100		> 100		> 100		> 100		> 100		> 100				> 100		> 100		
Cc1cn2c(/C=C3\C(=O)Nc4ccc(O)cc43)c(-c3ccc(Cl)cc3)nc2s1	20.8	81.1	18.1	56.2	15.5	45.3	14.3	42	15.2	39.1	21.3	> 100	21.2	51.4					14.5	54.2
COc1c(OC)c(OC)c(C(=O)/C=C/c2ccccc2)c(OC)c1OC		31.9		15.1		21.9		30.1		25.1		36.7		36.9				29.7		35.6
COc1ccc2[nH]cc(-c3nc(-c4c[nH]c5ncccc45)cs3)c2c1	0.661	3.88			3.26	> 100	4.95	> 100			2.83	> 100	> 100	> 100			67.3	> 100	2.21	> 100
O=c1[nH]cc(COCCO)c(=O)[nH]1		> 100		> 100		> 100		> 100		> 100		> 100		> 100		> 100				
O=C(CSc1nnc(-c2ccc(N=Cc3ccc(Cl)cc3)cc2)o1)Nc1ccc(Cl)cc1		> 100		> 100		> 100		> 100		> 100		> 100				> 100				
CC(=O)O[C@H]1CCC2[C@@H]3CCC4=C(O)c5nocc5C[C@]4(C)C3CC[C@@]21C (some centres not stated)		> 100		> 100		> 100		> 100		> 100		> 100		> 100		> 100				
Cc1ccc(Cn2c(C)nc3c2C(=O)c2ccccc2C3=O)cc1		> 100		> 100		3.13		34.3		49.8		6.18				28.7		> 100		
O=C(NCCCCN=c1cccccc1NCCCCNC(=O)OCc1ccccc1)OCc1ccccc1				18.7		26.4		40.6		79.8		30		41.9		40.4		32.1		
COc1ccc(/C(=N\NC(=O)C(N)=O)C(c2ccc(OC)cc2)C2(O)C(=O)Nc3c(Cl)cccc32)cc1 (configuration not stated)		> 100		> 100		> 100		> 100		> 100		> 100		> 100		> 100		> 100		
CCC1C2C=CC(CC2)N1S(=O)(=O)c1ccc(C)cc1 (configuration not stated)		54.5		42.1		52.1		73.4		> 100		31.5		79						
O=C(NC(=O)c1cn(CCNCCO)c(=O)[nH]c1=O)OCc1ccccc1		> 100		> 100		> 100		> 100				> 100		> 100		> 100				
CN(C)c1c([O-])c(=[N+](C)C)c1=O				> 100		> 100				> 100		> 100		> 100		> 100		> 100		
COc1ccc(NC(=O)/C(N=O)=C(/C)O)cc1				> 100		53.5		> 100		> 100		47.9		> 100		> 100		> 100		
CCCCCCC[CH2][Sn]1([CH2]CCCCCCC)[O]C(=O)c2cccnc2[S]1	> 100	> 100	> 100	> 100	> 100	> 100	> 100	> 100	> 100	> 100	> 100	> 100	> 100	> 100	> 100	> 100	> 100	> 100		

Compound	GI50 [1] [µM]	TGI [1] [µM]	GI50 [2] [µM]	TGI [2] [µM]	GI50 [3] [µM]	TGI [3] [µM]	GI50 [4] [µM]	TGI [4] [µM]	GI50 [5] [µM]	TGI [5] [µM]	GI50 [6] [µM]	TGI [6] [µM]	GI50 [7] [µM]	TGI [7] [µM]	GI50 [8] [µM]	TGI [8] [µM]	GI50 [9] [µM]	TGI [9] [µM]	GI50 [10] [µM]	TGI [10] [µM]
Cc1c(Cl)cccc1N1C(=O)C(Cl)=C(Cl)C1=O		> 100		> 100		> 100		> 100		> 100		> 100		> 100		97.2		> 100		
CCOC(=O)C1(c2ccccc2)CCC(=O)CC1		> 100		> 100		> 100		> 100		> 100		> 100		> 100		> 100		> 100		
C[C@H]1NC(=O)C2CCCCN2C(=O)CN(C)C(=O)CNC(=O)C2CCCCN2C(=O)[C@@H](NC(=O)c2nc3ccccc3cc2O)[C@@H](C)NC(=O)C2CCCCN2C(=O)CN(C)C(=O)CNC(=O)[C@@H]2CCCCN2C(=O)C1NC(=O)c1nc2ccccc2cc1O (some centres not stated)		0.641		> 100		> 100		0.388		2.11		> 100		7.55		0.199		0.479		
Cc1ccc(NC(=O)C2C(=O)N(c3ccc(C)c(C)c3)C(=O)C2N=N)cc1C (configuration not stated)		> 100		> 100		> 100		> 100		> 100				> 100		> 100		> 100		
O=C(Nc1cc(Cl)ccc1Cl)c1cc2cccc(Cl)c2oc1=O		> 100		> 100		> 100		> 100				> 100				> 100				
CCc1c(OC(C)=O)c2c(NC3OC(COC(C)=O)C(OC(C)=O)C(OC(C)=O)C3OC(C)=O)nc(OC)nc2oc1=O (configuration not stated)		> 100		> 100		> 100		> 100		> 100		> 100		> 100		> 100		> 100		
O=c1cc2oc3cc(O)c(O)cc3c(-c3ccccc3O)c-2cc1O	36.3	> 100	44.4	> 100	21.5	82.6	53	> 100	9.65	> 100	4.84	34.2	44.6	> 100	6.5	> 100			10.2	> 100
COc1ccc(C(O)c2nccn2C)c(OC)c1 (configuration not stated)		> 100		> 100		> 100		> 100		> 100				> 100		> 100		> 100		
CCc1cccc(C)c1NC(=O)C(=O)Cc1nc2ccccc2o1		> 100		> 100		> 100		> 100		> 100		> 100		> 100		> 100		> 100		
COC(=O)[C@]1(C)CCCC2(C)C1CC[C@H]1C=C(C)[C@H]3CCC12C3 (some centres not stated)		> 100		> 100		> 100		> 100		> 100		> 100		> 100		> 100		> 100		
COc1ccc2oc(-c3cccnc3)cc(=O)c2c1		> 100		> 100		> 100		> 100		> 100		> 100				> 100		> 100		
CCCn1c(N)c(C(=O)N/N=C(/C)c2cc3cccc(OC)c3o2)sc1=S	56.7	> 100	16.4	> 100	17.7	> 100	74	> 100	30.2	> 100	16.5	> 100	> 100	> 100	24.1	> 100			> 100	> 100
CCOc1ccc2c(c1)[n+]([O-])c(-c1ccccc1Cl)c(N)[n+]2[O-]		> 100		> 100		> 100		> 100		> 100				> 100		> 100				
COC1[C@@H](OC(C)=O)[C@@H](NC(=O)C(Cl)(Cl)Cl)C(I)[C@@H](N2C(=O)c3ccccc3C2=O)[C@H]1OC (some centres not stated)		> 100		> 100		> 100				> 100		> 100		> 100		> 100				
CCOc1ccc(N2C(=O)/C(=C/c3ccc(N(CCC#N)CCC#N)cc3)N=C2c2cc([N+](=O)[O-])ccc2Cl)cc1		44.1				55.7				> 100		62.6		> 100		> 100		> 100		
O=C1NC(=S)NNC12c1ccccc1-c1ccccc12		> 10		> 10		> 10		> 10				> 10						> 10		> 10
O=[N+]([O-])c1ccc(-n2nnc(C3=NCCN3)c2-c2ccc(Cl)cc2)cc1		> 100		> 100		> 100		> 100		> 100		> 100		> 100		> 100		> 100		
COc1cccc(/C=N/[N-]C(=O)c2ccncc2)c1[O-].[Cu+2].[OH3+]	78.4	> 100	43.8	> 100	28.7	> 100	> 100	> 100	> 100	> 100	> 100	> 100	> 100	> 100			> 100	> 100		
O=C1c2ccccc2C2(O)c3cc4ccccc4cc3OC12O (configuration not stated)		> 100		> 100		> 100		> 100		> 100		> 100		> 100		97.6		> 100		
Cc1ccc(S(=O)(=O)N/N=C/c2oc(-c3ccncc3)c(-c3ccncc3)c2[N+](=O)[O-])cc1		> 100		> 100		> 100		> 100		> 100		> 100		> 100		> 100		> 100		

Reference: PubChem BioAssay (NCI)
